Where “and” joins values, the source holds several entries; their conditions need not be identical. Equal values may be shown once. Where a name gives a salt, the structure may show the parent alone.
Tests used:
[1] = test system: dopamine efflux in the nucleus accumbens; set-up: method as in Rowley et al. [2017]; settings: rat nucleus accumbens microdialysis; ref Rowley et al. [2017]; cited from earlier work
[2] = test system: D2 receptors; test: [11C]-Raclopride PET: elevation of synaptic dopamine
Procedure: Two female rhesus macaques (weight, 8.4 ± 0.2 kg; age, 16.6 ± 0.5) were scanned with [^11C]-Raclopride a total of 8 times, each under 4 scanning conditions per test agent. All scans were performed with [^11C]-Raclopride (tracer mass limited to 0.25 μg/kg) administered as an intravenous (i.v.) bolus + constant infusion (3 min bolus +132 min infusion; Kbol = 60 min; injected dose 5.8 ± 1.0 mCi). Scan data collection began simultaneously with tracer injection using the Siemens FOCUS 220 PET scanner. The scan data was acquired for 135 min and binned into sinograms with the following frame timing: 6 × 30 s; 3 × 1 min; 2 × 2 min; and 25 × 5 min. Prior to each tracer injection, a transmission scan was performed with an external gamma source for attenuation correction.
Experiment day 1 consisted of an initial [^11C]-Raclopride injection with MPH given i.v. at 45 min post-start of tracer administration under tracer steady-state conditions (displacement experiment). A second [^11C]-Raclopride scan was initiated ~ 2.5–3.5 h after the start of scan 1. Experiment day 2 consisted of a MPH pre-block initiated ~ 30 min prior to the first scan. A second scan was again initiated ~ 2.5–3.5 h after the start of scan 1. This same 2-day scanning paradigm was completed for both subjects and repeated using DAS in place of MPH. The test agent doses used were 0.2 mg/kg for DAS and 0.5 mg/kg for MPH. A minimum of 2-week recovery time was allowed between scans with the same subject.
Dynamic scan data were reconstructed with a filtered back-projection algorithm with corrections for attenuation, normalization, scatter, and randoms. ROIs were manually delineated on a single representative anatomical rhesus monkey magnetic resonance image (MRI) registered to a template image. Regions used in this study were caudate and putamen with the cerebellum as the reference region. Registration parameters were obtained to apply the ROIs to individual PET scans, and regional TACs were generated for the ROIs. Apparent binding potential (BPND) curves (target-to-cerebellum ratio - 1) were calculated for putamen and caudate by pooling the data from the 4 injections for each animal/drug combination. The following models were used to describe the apparent BPND curves. Model 1 is based on a gamma function where the occupancy increases, reaches a maximum, and then decreases, and both phases can be measured in the study. Model 2 has only increasing occupancy with time, approaching an asymptotic value. • Model 1: Four-parameter model (gamma function):
The change of BPND over time is modeled using a gamma function. BPNDt=BP01−At−t0^αexp−βt−t0t≥t0
The model can be reformulated as follows: BPNDt=BP01−Occ^maxt−t0/tmax−t0^αexpα1−t−t0/tmax−t0t≥t0α≡−ln2/1−τ+lnττ≡t1/2,R−t0/tmax−t0τ<1ort1/2,F−t0/tmax−t0τ>1 where t0 is the known time of drug administration and BP0 is the apparent BPND at time t0. The maximum occupancy, Occ^max, is obtained at time, tmax. The occupancy rises to 50% of Occ^max at the time, t1/2,R (< tmax), and falls to 50% of Occ^max at time, t1/2,F (> tmax). The 4 parameters of this model are BP0, Occ^max, tmax, and t1/2,R (or t1/2,F). • Model 2: Three-parameter model: BPNDt=BP01−Occ^max1−exp−βt−t0,β=ln2/t1/2,R−t0t≥t0
The parameters of this model are BP0, Occ^max, and t1/2,R.

[3] = test system: DAT; set-up: method as in Hasenhuetl et al. [2015]; settings: ref Hasenhuetl et al. [2015]; cited from earlier work
[4] = cited from earlier work
[5] = Extrapolated permeability and half-time to reach brain equilibrium (equation of Liu et al.)
Description: While lipid solubility and protein binding influences brain penetration, it appears that it is the combination of these two properties that influences the rate of brain penetration of a drug (Liu et al [2005]). […] The half-time to reach brain equilibrium (t1/2 equil) can be estimated by the following equation:
t1/2 equil = Vbln2/(PS.fu,brain)
where Vb is brain volume, PS is the permeability surface area product, P is the permeability rate, S is the surface area and fu is the unbound (free) drug brain concentration.
For comparative purposes between MPH and DAS, we can assume Vb and surface area are the same for both drugs, and the above equation becomes: t1/2equil∝1/P.fu,brain
As mentioned above, plasma protein binding of DAS and MPH are ~ 0.97 (or ~ 97%) and ~ 0.14 (or 14%) respectively, and the free plasma concentration of DAS is 0.03 and for MPH, it is 0.86. Since free drug plasma concentration is equal to free drug brain concentration, we can apply the free drug plasma concentration values of DAS and MPH together with the extrapolated permeability for DAS (12P) and MPH (P) to approximate t1/2 equil for both drugs, i.e.,

[6] = test system: plasma protein; test: Plasma protein binding; settings: for Free plasma concentration (fraction): as fraction; for Free plasma concentration (fraction) / Free plasma concentration: from plasma protein binding
[7] = test system: solute carrier (SLC) and organic anion transporters (OAT); settings: LLC-PK1 cell monolayers and Xenopus Laevis Oocytes; Data-on-file; ref Sunovion Reports #531, 544, 575; cited from earlier work
[8] = test system: DAT; settings: ref Rowley et al. [2017]; read-out: Affinity for DAT, IC50; cited from earlier work
[9] = test system: P-gp; settings: LLC-PK1 cell monolayers and Xenopus Laevis Oocytes; Data-on-file; ref Sunovion Reports #531, 544, 575; cited from earlier work
[10] = test system: efflux transporters of the ATP binding cassette (ABC) superfamily; settings: LLC-PK1 cell monolayers and Xenopus Laevis Oocytes; Data-on-file; ref Sunovion Reports #531, 544, 575; cited from earlier work
[11] = rodent, 14C-DAS; Data-on-file; ref Sunovion report 360-365; cited from earlier work
[12] = orally administered, recreational stimulant users; ref Koblan et al. [2016]; cited from earlier work
[13] = MPH 0.5 mg/kg i.v., model 1 fit
[14] = DAS 0.2 mg/kg i.v., model 2 fit

For `COC(=O)C(c1ccccc1)C1CCCCN1` (racemic) [MPH, (±)-Methyl α-Phenyl-α-(2-piperidyl)acetate hydrochloride, reference compound], the “Time of peak of dopamine efflux” value [1] is given as 40 min, the “Maximum reduction in [11C]-raclopride binding (Occmax) in caudate and putamen” value [2, 13] is given as 27% and the “Time for half-maximal displacement (t1/2,R) of [11C]-raclopride” value [2, 13] is given as 0.383 h. For the same compound, the “Time for half-maximal displacement of [11C]-raclopride shorter than for DAS” value ([2]; MPH 0.5 mg/kg relative to DAS 0.2 mg/kg) was 4 fold, the “Association rate (kon) to DAT” value [3] was 830000 M⁻¹ s⁻¹ and the “Time to peak (oral absorption)” value ([4]; oral, ref Koblan et al. [2016]) was 2 to 3 h. For the same compound, the “Faster than DAS in reaching brain equilibrium” value ([5]; MPH relative to DAS, from t1/2equil) was greater than 2 fold, the “Free plasma concentration higher than that of DAS” value ([6]; MPH relative to DAS) was roughly 30 fold and the “Free plasma concentration (fraction)” value [6] was 0.86. For the same compound, the Free plasma concentration [6] was 86%.

In the case of `N[C@@H]1CC[C@@H](c2ccc(Cl)c(Cl)c2)c2ccccc21` [DAS, (1R,4S)-4-(3,4-dichlorophenyl)-1,2,3,4-tetra-hydronaphthalen-1-amine], the “Time to reach maximum effect on dopamine efflux post-dose” value [1] is listed as “up to 2 h”, the “Maximum reduction in [11C]-raclopride binding (Occmax) in caudate and putamen” value [2, 14] is listed as 29% and the “Time for half-maximal displacement (t1/2,R) of [11C]-raclopride” value [2, 14] is listed as 1.47 h. For the same compound, the “Time to 50% maximum displacement of [11C]-Raclopride / elevation of synaptic DA slower than MPH” value ([2]; DAS relative to MPH) was ~ 4 fold and 4 fold, the “Active uptake by SLC and OAT transporters” value [7] was “not actively taken up” and the IC50 [8] was 3 nM. For the same compound, the “Substrate for P-gp” value [9] was “not a substrate”, the “t1/2 (elimination)” value ([4]; human, in vivo, po) was 47 to 77 h and the tmax ([4]; oral administration in humans) was 10 to 12 h. The “Substrate for other efflux transporters of the ABC superfamily” value [10] was “not a substrate”, the “brain:plasma ratio/partition coefficient (Kp)” value [11] was 6.2–12.3 and the Potential for abuse [12] was “low potential for abuse compared with MPH”. For the same compound, the “t1/2equil (half-time to reach brain equilibrium), proportional to” value ([5]; 1/(P.fu,brain) with extrapolated permeability (DAS 12P, MPH P) and free plasma fraction) was 2.77 P, the “Free plasma concentration (fraction)” value [6] was 0.03 and the Free plasma concentration [6] was 3%.

From publication PMC7651685 (Psychopharmacology, 2020)
